Results taken from US11260023B2, “Topical compositions containing rofecoxib and methods of making and using the same” (BRIORI BIOTECH, LLC, priority 2020, dated 2022).
Where “and” joins values, the source holds several entries; their conditions need not be identical. Identical values can stand only once.

Assay: Solubility of rofecoxib in solvent systems containing two or three solvents; synergistic or antagonist effect
Assay type: physicochemical
Procedure: The solubility of rofecoxib in solvent systems containing two or three solvents was determined. In solvent systems containing two solvents, […] of each solvent was added to 100 mg of rofecoxib. In solvent systems containing three solvents, […] of each solvent was added to 100 mg of rofecoxib. The samples were mixed using the protocol for solvent systems containing single solvents above. Serial dilutions of the rofecoxib solvent solutions were made (1:100 v:v), (1:1000 v/v), and (1:2000 v/v). Solvents without rofecoxib were diluted with methanol and used to blank a Beckman DU-7400 spectrophotometer. The absorbance of the samples was determined at a wavelength of 279.1 nm. The concentration of rofecoxib dissolved in the solvent was calculated using Beer's Law. The ability of the solvent systems to synergistically dissolve rofecoxib or antagonistically dissolve rofecoxib (reduce the ability of rofecoxib to dissolve was determined) according to the protocol below. The contribution for solubility of a single solvent in a two-mixture solution was calculated to be ½ of the calculated solubility of rofecoxib in one gram of excipient. Likewise, the contribution for solubility of a three-mixture was calculated to be ⅓ of the calculated solubility of rofecoxib in one gram of excipient. The expected solubility for a mixture is the addition of the contribution of each excipient. […] The percent change between the expected solubility and actual solubility was determined. […] Similar calculations are utilized for solvent systems containing three or more solvents.

For `CS(=O)(=O)c1ccc(C2=C(c3ccccc3)C(=O)OC2)cc1` [Rofecoxib], the “Synergistic effect of three-solvent systems on dissolving rofecoxib” value (AC/PEG/PGD, BA/AC/PEG, BA/PEG/PGD, PC/AC/PGD, BA/AC/PGD, PC/PEG/PGD, DI/PC/AC, PC/BA/AC, DI/PC/BA, DI/PC/EA, PC/AC/PEG, DI/PC/DGME, DI/PC/PEG, DI/PC/PGD, DI/BA/PC, DI/PC/DMSO) was “work synergistically to dissolve rofecoxib”, the “Synergistic effect of two-solvent systems on dissolving rofecoxib” value (BA/AC, AC/PEG, EA/PPG, PEG/EA, AC/DGME, AC/PC, AC/DI, PC/DI, PEG/PGD, AC/PGD, DI/PGD, PC/PGD, EA/DMSO, PEG/DGME, EA/DGME, EA/BA, DGME/PGD, BA/PGD, EA/M24D) was “work synergistically to dissolve rofecoxib” and the “expected solubility of rofecoxib in 500 μg of acetone” value (contribution of acetone in system of equal amounts acetone and benzyl alcohol) was 11.79 mg/g. The “expected solubility of rofecoxib in 500 μg of benzyl alcohol” value (contribution of benzyl alcohol in system of equal amounts acetone and benzyl alcohol) was 9.77 mg/g, the “% Change (observed vs expected solubility)” value (“% Change” below) (in AC + DGME) was 139.9% and the “Expected Solubility” value (in AC + DGME) was 16.30 mg/g. The “Observed Solubility” value (in AC + DGME) was 22.80 mg/g, the “% Change” value (in AC + EA) was 109.7% and the “Expected Solubility” value (in AC + EA) was 14.52 mg/g. For the same compound, the “Observed Solubility” value (in AC + EA) was 15.92 mg/g, the “% Change” value (in AC + MP) was 97.9% and 52.7% and the “Expected Solubility” value (in AC + MP) was 110.77 mg/g. The “Observed Solubility” value (in AC + MP) was 108.48 mg/g and 58.38 mg/g, the “% Change” value (in AC + MP + PEG) was 34.29% and the “Expected Solubility” value (in AC + MP + PEG) was 78.24 mg/g. The “% Change” value (in AC + MP + PGD) was 77.19%, the “Expected Solubility” value (in AC + MP + PGD) was 76.17 mg/g and the “% Change” value (in AC + PEG) was 137.2% and 174.3%. For the same compound, the “Expected Solubility” value (in AC + PEG) was 18.34 mg/g, the “Observed Solubility” value (in AC + PEG) was 25.15 mg/g and 31.96 mg/g and the “Expected Solubility” value (in AC + PEG + PGD) was 14.55 mg/g. For the same compound, the “% Change” value (in AC + PGD) was 124.0% and 113.7%, the “Expected Solubility” value (in AC + PGD) was 15.23 mg/g and the “Observed Solubility” value (in AC + PGD) was 18.88 mg/g and 17.32 mg/g. The “% Change” value (in BA + AC) was 150.7% and 134.8% and 100.7% and 185.3%, the “Expected Solubility” value (in BA + AC) was 21.54 mg/g and 31.65 mg/g and the “Observed Solubility” value (in BA + AC) was 32.46 mg/g and 29.03 mg/g and 31.86 mg/g and 39.91 mg/g. For the same compound, the “% Change” value (in BA + AC + MP) was 48.23%, the “Expected Solubility” value (in BA + AC + MP) was 80.37 mg/g and the “Expected Solubility” value (in BA + AC + PEG) was 18.75 mg/g. For the same compound, the “% Change” value (in BA + AC + PGD) was 197.12%, the “Expected Solubility” value (in BA + AC + PGD) was 16.68 mg/g and the “Observed Solubility” value (in BA + AC + PGD) was 32.89 mg/g. The “Expected Solubility” value (in BA + AC, listed as rofecoxib) was 21.56 mg/g, the “% Change” value (in BA + DGME) was 64.2% and the “Expected Solubility” value (in BA + DGME) was 14.31 mg/g. The “Observed Solubility” value (in BA + DGME) was 9.18 mg/g, the “% Change” value (in BA + EA) was 116.8% and the “Expected Solubility” value (in BA + EA) was 12.52 mg/g. The “Observed Solubility” value (in BA + EA) was 14.63 mg/g, the “% Change” value (in BA + MP) was 41.3% and 30.8% and the “Expected Solubility” value (in BA + MP) was 108.77 mg/g. For the same compound, the “Observed Solubility” value (in BA + MP) was 44.97 mg/g and 33.53 mg/g, the “% Change” value (in BA + MP + PEG) was 40.43% and the “Expected Solubility” value (in BA + MP + PEG) was 76.89 mg/g. For the same compound, the “% Change” value (in BA + MP + PGD) was 85.42%, the “Expected Solubility” value (in BA + MP + PGD) was 74.82 mg/g and the “% Change” value (in BA + PEG) was 63.2% and 61.6% and 60.6%. For the same compound, the “Expected Solubility” value (in BA + PEG) was 16.34 mg/g, the “Observed Solubility” value (in BA + PEG) was 10.33 mg/g and 10.06 mg/g and 9.91 mg/g and the “Expected Solubility” value (in BA + PEG + PGD) was 13.20 mg/g. The “% Change” value (in BA + PGD) was 110.9% and 103.2%, the “Expected Solubility” value (in BA + PGD) was 13.24 mg/g and the “Observed Solubility” value (in BA + PGD) was 14.67 mg/g and 13.66 mg/g. The “% Change” value (in DGME + EA) was 117.3%, the “Expected Solubility” value (in DGME + EA) was 7.29 mg/g and the “Observed Solubility” value (in DGME + EA) was 8.54 mg/g. For the same compound, the “% Change” value (in DGME + PGD) was 115.7%, the “Expected Solubility” value (in DGME + PGD) was 8.00 mg/g and the “Observed Solubility” value (in DGME + PGD) was 9.26 mg/g. The “% Change” value (in DI + AC) was 134.6%, the “Expected Solubility” value (in DI + AC) was 31.34 mg/g and the “Observed Solubility” value (in DI + AC) was 42.18 mg/g. For the same compound, the “% Change” value (in DI + BA) was 72.3%, the “Expected Solubility” value (in DI + BA) was 29.34 mg/g and the “Observed Solubility” value (in DI + BA) was 21.20 mg/g. For the same compound, the “% Change” value (in DI + BA + DMSO) was 85.05%, the “Expected Solubility” value (in DI + BA + DMSO) was 67.43 mg/g and the “% Change” value (in DI + BA + PC) was 155.19%. The “Expected Solubility” value (in DI + BA + PC) was 36.04 mg/g, the “Observed Solubility” value (in DI + BA + PC) was 55.93 mg/g and the “% Change” value (in DI + DGME) was 95.0%. For the same compound, the “Expected Solubility” value (in DI + DGME) was 24.11 mg/g, the “Observed Solubility” value (in DI + DGME) was 22.91 mg/g and the “% Change” value (in DI + EA) was 69.9%. For the same compound, the “Expected Solubility” value (in DI + EA) was 22.32 mg/g, the “Observed Solubility” value (in DI + EA) was 15.60 mg/g and the “% Change” value (in DI + MP) was 71.6%. The “Expected Solubility” value (in DI + MP) was 118.57 mg/g, the “Observed Solubility” value (in DI + MP) was 84.92 mg/g and the “% Change” value (in DI + PC) was 133.9% and 130.6%. For the same compound, the “Expected Solubility” value (in DI + PC) was 44.29 mg/g, the “Observed Solubility” value (in DI + PC) was 59.30 mg/g and 57.83 mg/g and the “% Change” value (in DI + PC + AC) was 143.72%. The “Expected Solubility” value (in DI + PC + AC) was 37.38 mg/g, the “Observed Solubility” value (in DI + PC + AC) was 53.73 mg/g and the “% Change” value (in DI + PC + BA) was 132.30%. For the same compound, the “Expected Solubility” value (in DI + PC + BA) was 36.04 mg/g, the “Observed Solubility” value (in DI + PC + BA) was 47.68 mg/g and the “% Change” value (in DI + PC + DGME) was 123.28%. For the same compound, the “Expected Solubility” value (in DI + PC + DGME) was 32.55 mg/g, the “Observed Solubility” value (in DI + PC + DGME) was 40.12 mg/g and the “% Change” value (in DI + PC + DMSO) was 114.83%. The “Expected Solubility” value (in DI + PC + DMSO) was 77.39 mg/g, the “% Change” value (in DI + PC + EA) was 128.04% and the “Expected Solubility” value (in DI + PC + EA) was 31.36 mg/g. For the same compound, the “Observed Solubility” value (in DI + PC + EA) was 40.15 mg/g, the “% Change” value (in DI + PC + PEG) was 119.10% and the “Expected Solubility” value (in DI + PC + PEG) was 33.90 mg/g. For the same compound, the “Observed Solubility” value (in DI + PC + PEG) was 40.38 mg/g, the “% Change” value (in DI + PC + PGD) was 115.12% and the “Expected Solubility” value (in DI + PC + PGD) was 31.83 mg/g. The “Observed Solubility” value (in DI + PC + PGD) was 36.65 mg/g, the “% Change” value (in DI + PEG) was 105.8% and the “Expected Solubility” value (in DI + PEG) was 26.14 mg/g. The “Observed Solubility” value (in DI + PEG) was 27.65 mg/g.
